Laboratory results reported in patent US7531507B2, “Acylated nonadepsipeptides containing pyridyl alanine residues” (AiCuris GmbH & Co. KG, priority 2004, dated 2009).
In brackets after ≈: the same amount, converted by molar mass. Structures can show the parent of a compound that is named as a salt. Where two headings read alike, the source gives them in different places. Starred links: 1 amine or outer side, 2 acyl side, 3 side chain; linkers in the order of their positions; H or OH if unused. Positions of bridges follow the written chain, without caps; N, C: chain ends. Non-standard residues stand in square brackets, D forms with d. Residues, ends and D or L forms follow the SMILES beside them. *: point of attachment. X3 = CCC(C)(C)C[C@@H](N)C(=O)N[C@@H](Cc1cccnc1)C(=O)N[C@H](C(N)=O)[C@H](O*)c1ccccc1; X2 = CC(C)(C)C[C@@H](N)C(=O)N[C@@H](Cc1cccnc1)C(=O)N[C@H](C(N)=O)[C@H](O*)c1ccccc1; Phe(3R-OH) = O=C([C@@H](N[*:1])[C@H](O[*:3])c1ccccc1)[*:2]; Asn(3S-OH) = NC(=O)[C@@H](O)[C@H](N)C(=O)O; Leu(3R-OH) = CC(C)[C@@H](O)[C@H](N)C(=O)O; dAla(TMS) = C[Si](C)(C)C[C@@H](N)C(=O)O; X1 = CC(C)[C@@H](O)[C@H](C)C(=O)*; 3Pal = N[C@@H](Cc1cccnc1)C(=O)O; aThr = C[C@H](O)[C@H](N)C(=O)O

Experiments:
[1] = tested on: Staphylococcus aureus 133; format: cell-based
Method: (§1) Determination of the Minimum Inhibitory Concentration (MIC):
(§2) The MIC is determined in the liquid dilution test in accordance with the NCCLS guidelines. Overnight cultures of Staphylococcus aureus 133, Enterococcus faecalis 27159, E. faecium 4147 and Streptococcus pneumoniae G9a are incubated with the described test substances in a 1:2 dilution series. The MIC determination is carried out with a cell count of 10^5 microbes per ml in Isosensitest medium (Difco, Irvine/USA), with the exception of S. pneumoniae which is tested in BHI broth (Difco, Irvine/USA) with 10% bovine serum with a cell count of 10^6 microbes per ml. The cultures are incubated at 37° C. for 18-24 hours, S. pneumoniae in the presence of 10% CO2.
(§3) The MIC is defined as the lowest concentration of each substance at which visible bacterial growth no longer occurs. The MIC values are reported in μg/ml.

[2] = tested on: Streptococcus pneumoniae G9a; format: cell-based
Method: as §1, §2, §3

E. faecalis ICB 27159 = format: cell-based, Enterococcus faecalis
Method: as §1, §2, §3

[3] = Determination of the free fraction (fu) in plasma via Transil or ultrafiltration; format: in vitro ADME, rat
Method: Principle of the Determination of the Free Fraction via Transil:
The method described herein for determining the free fraction (fu) of a test substance is divided into 2 parts:
a) Determination of the Transil®/buffer partitioning ratio (MAbuffer) by incubating the test substance in a Transil® buffer (pH 7.4) dispersion and subsequently determining the concentration in the dispersion and in the buffer supernatant.
b) Determination of the Transil®/plasma partitioning ratio (MAplasma) by incubating the test substance in a Transil® plasma dispersion and subsequently determining the concentration in the dispersion and in the plasma.
The quotient of the two partitioning ratios gives fu.
Where substances are highly protein-bound, the plasma is usually diluted with isotonic phosphate buffer (pH 7.4) and then suspended with Transil®. Determination of fu′ (free fraction in diluted plasma) in this diluted protein solution takes place in analogy to the determination of fu. The free fraction in undiluted plasma is calculated from fu′ and the dilution factor.
Concerning this method, compare also: Schuhmacher, Joachim; Kohlsdorfer, Christian; Buehner, Klaus; Brandenburger, Tim; Kruk, Renate, “High-throughput determination of the free fraction of drugs strongly bound to plasma proteins.” Journal of Pharmaceutical Sciences 2004, 93, 816-830.
Determination of the Membrane Affinity of a Test Substance After Partitioning Between Transil® and Buffer (MAbuffer):
All incubations are carried out in suitable glass vessels, e.g. glass vials, ground-joint test tubes. The total volume is usually 0.5-5 ml, and the Transil® volume is 10-100 μl. If the membrane affinities are expected to be high, the Transil® dispersion can be diluted up to 20 times with phosphate buffer of pH 7.4, e.g. Dulbecco's PBS. Phosphate buffer of pH 7.4 is introduced into the incubation vessels, and the Transil® is pipetted in after thorough mixing. The test substance is pipetted in at a concentration of, for example, 200 ng/ml, n=6. The proportion of organic solvents should be ≦2%. The mixtures are incubated at room temperature i.e. on a mini-shaker at an angle of about 45°, at about 400 rpm for 30 min. The 100% value is determined by taking at least one aliquot of, for example, 100 μl, and the remaining mixture is centrifuged at about 1800 g for about 10 min. […]
The plasma of the species to be investigated is filtered through a semipermeable membrane. The concentration of substance in the filtrate is measured, and the free fraction fU is calculated therefrom. […] The concentration of substance in the ultrafiltrate (Cu, unbound substance concentration) and in the plasma before centrifugation (C; total substance concentration) is measured. The free fraction is calculated by the formula fu (%)=Cu/C*100.

E. faecium L4001 = format: cell-based, Enterococcus faecium
[4] = Isosensitest medium, 10^5 microbes per ml, 37° C., 18-24 hours
[5] = Isosensitest medium, 10^5 microbes per ml, 37° C., 18-24 hours, trishydrochloride

With `CC[C@H](C)[C@H](NC(=O)[C@@H](CCCNC(=N)N)NC(=O)[C@H](CC(C)C)NC(=O)[C@@H](C)[C@H](O)C(C)C)C(=O)N[C@H](C(=O)NCC(=O)N[C@H](C(=O)N[C@@H](CO)C(=O)O[C@H](c1ccccc1)[C@H](NC(=O)[C@H](Cc1cccnc1)NC(=O)[C@H](N)CC(C)(C)C)C(N)=O)[C@H](O)C(N)=O)[C@H](C)O.O=C(O)C(F)(F)F.O=C(O)C(F)(F)F.O=C(O)C(F)(F)F` [Example 5, 3-tert-Butyl-D-alanyl-3-(pyridin-3-yl)-L-alanyl-de(1-D-leucyl-2-L-leucyl)lysobactin tristrifluoroacetate, reference compound] (X1-L[dR]I[aThr]G[Asn(3S-OH)]S-X2) the “MIC S. aureus 133” value [1]; 133 was 0.5 µg/mL, the “MIC S. pneumoniae G9a” value ([2]; G9a) was 0.5 µg/mL and the “MIC E. faecalis ICB 27159” value (E. faecalis ICB 27159; ICB 27159) was 1 µg/mL. The fraction unbound at 30 min ([3]; rat, plasma) was 0.086 and the “MIC E. faecium L4001” value (E. faecium L4001; L4001) was 1 µg/mL.
With `CC[C@H](C)[C@@H]1NC(=O)[C@@H](CCCNC(=N)N)NC(=O)[C@H](CC(C)C)NC(=O)[C@H]([C@H](O)C(C)C)NC(=O)[C@@H](NC(=O)[C@H](Cc2cccnc2)NC(=O)[C@H](N)C[Si](C)(C)C)[C@@H](c2ccccc2)OC(=O)[C@H](CO)NC(=O)[C@H]([C@H](O)C(N)=O)NC(=O)CNC(=O)[C@H]([C@H](C)O)NC1=O` [Example 2, 3-(Trimethylsilyl)-D-alanyl-3-(pyridin-3-yl)-L-alanyl-de(1-D-leucyl-2-L-leucyl)-lysobactin tristrifluoroacetate] (H-[dAla(TMS)][3Pal][Phe(3R-OH)][Leu(3R-OH)]L[dR]I[aThr]G[Asn(3S-OH)]S; ester 3-C) the “MIC S. aureus 133” value [1, 4] was 0.125 µg/mL (≈ 0.0932 µM), the “MIC S. pneumoniae G9a” value ([2]; BHI broth with 10% bovine serum, 10^6 microbes per ml, 37° C., 18-24 hours, 10% CO2) was 0.125 µg/mL (≈ 0.0932 µM) and the “MIC E. faecalis ICB 27159” value (E. faecalis ICB 27159; [4]) was 0.5 µg/mL (≈ 0.373 µM). For the same molecule, the fraction unbound at 30 min ([3]; free fraction in rat plasma, read-out: fu (rat)) was 0.123 and the “MIC E. faecium L4001” value (E. faecium L4001; [4]) was 1 µg/mL (≈ 0.745 µM).
In the case of `CC[C@H](C)[C@@H]1NC(=O)[C@@H](CCCNC(=N)N)NC(=O)[C@H](CC(C)C)NC(=O)[C@H]([C@H](O)C(C)C)NC(=O)[C@@H](NC(=O)[C@H](Cc2cccnc2)NC(=O)[C@H](N)C[Si](C)(C)C)[C@@H](c2ccccc2)OC(=O)[C@H](CO)NC(=O)[C@H]([C@H](O)C(N)=O)NC(=O)CNC(=O)[C@H]([C@H](C)O)NC1=O` [Example 3, 3-(Trimethylsilyl)-D-alanyl-3-(pyridin-3-yl)-L-alanyl-de(1-D-leucyl-2-L-leucyl)-lysobactin trismethanesulphonate] (H-[dAla(TMS)][3Pal][Phe(3R-OH)][Leu(3R-OH)]L[dR]I[aThr]G[Asn(3S-OH)]S; ester 3-C), the “MIC S. aureus 133” value [1, 4] is reported as 0.5 µg/mL.
With `CC[C@H](C)[C@@H]1NC(=O)[C@@H](CCCNC(=N)N)NC(=O)[C@H](CC(C)C)NC(=O)[C@H]([C@H](O)C(C)C)NC(=O)[C@@H](NC(=O)[C@H](Cc2cccnc2)NC(=O)[C@H](N)C[Si](C)(C)C)[C@@H](c2ccccc2)OC(=O)[C@H](CO)NC(=O)[C@H]([C@H](O)C(N)=O)NC(=O)CNC(=O)[C@H]([C@H](C)O)NC1=O` [Example 7, (Trimethylsilyl)-D-alanyl-3-(pyridin-3-yl)-L-alanyl-de(1-D-leucyl-2-L-leucyl)lysobactin tris-L-lactate] (H-[dAla(TMS)][3Pal][Phe(3R-OH)][Leu(3R-OH)]L[dR]I[aThr]G[Asn(3S-OH)]S; ester 3-C) the “MIC S. aureus 133” value [1, 4] was 0.063 µg/mL (≈ 0.047 µM) and the “MIC E. faecalis ICB 27159” value (E. faecalis ICB 27159; [4]) was 1 µg/mL (≈ 0.745 µM).
For `CC[C@H](C)[C@H](NC(=O)[C@@H](CCCNC(=N)N)NC(=O)[C@H](CC(C)C)NC(=O)[C@@H](C)[C@H](O)C(C)C)C(=O)N[C@H](C(=O)NCC(=O)N[C@H](C(=O)N[C@@H](CO)C(=O)O[C@H](c1ccccc1)[C@H](NC(=O)[C@H](Cc1cccnc1)NC(=O)[C@H](N)CC(C)(C)CC)C(N)=O)[C@H](O)C(N)=O)[C@H](C)O.O=C(O)C(F)(F)F.O=C(O)C(F)(F)F.O=C(O)C(F)(F)F` [Example 4, 4,4-Dimethyl-D-norleucyl-3-(pyridin-3-yl)-L-alanyl-de(1-D-leucyl-2-L-leucyl)lysobactin tristrifluoroacetate] (X1-L[dR]I[aThr]G[Asn(3S-OH)]S-X3), the “MIC S. aureus 133” value [1]; 133 was 0.25 µg/mL, the “MIC S. pneumoniae G9a” value ([2]; G9a) was 0.125 µg/mL and the “MIC E. faecalis ICB 27159” value (E. faecalis ICB 27159; ICB 27159) was 1 µg/mL. For the same molecule, the fraction unbound at 30 min ([3]; rat, plasma) was 0.061.
With `CC[C@H](C)[C@@H]1NC(=O)[C@@H](CCCNC(=N)N)NC(=O)[C@H](CC(C)C)NC(=O)[C@H]([C@H](O)C(C)C)NC(=O)[C@@H](NC(=O)[C@H](Cc2cccnc2)NC(=O)[C@H](N)C[Si](C)(C)C)[C@@H](c2ccccc2)OC(=O)[C@H](CO)NC(=O)[C@H]([C@H](O)C(N)=O)NC(=O)CNC(=O)[C@H]([C@H](C)O)NC1=O` [Example 8, (Trimethylsilyl)-D-alanyl-3-(pyridin-3-yl)-L-alanyl-de(1-D-leucyl-2-L-leucyl)lysobactin tris-D-tartrate] (H-[dAla(TMS)][3Pal][Phe(3R-OH)][Leu(3R-OH)]L[dR]I[aThr]G[Asn(3S-OH)]S; ester 3-C) the “MIC S. aureus 133” value [1, 4] was 0.25 µg/mL (≈ 0.186 µM) and the “MIC E. faecalis ICB 27159” value (E. faecalis ICB 27159; [4]) was 2 µg/mL (≈ 1.49 µM).
With `CC[C@H](C)[C@@H]1NC(=O)[C@@H](CCCNC(=N)N)NC(=O)[C@H](CC(C)C)NC(=O)[C@H]([C@H](O)C(C)C)NC(=O)[C@@H](NC(=O)[C@H](Cc2cccnc2)NC(=O)[C@H](N)C[Si](C)(C)C)[C@@H](c2ccccc2)OC(=O)[C@H](CO)NC(=O)[C@H]([C@H](O)C(N)=O)NC(=O)CNC(=O)[C@H]([C@H](C)O)NC1=O` [Example 6, (Trimethylsilyl)-D-alanyl-3-(pyridin-3-yl)-L-alanyl-de(1-D-leucyl-2-L-leucyl)lysobactin trishydrochloride] (H-[dAla(TMS)][3Pal][Phe(3R-OH)][Leu(3R-OH)]L[dR]I[aThr]G[Asn(3S-OH)]S; ester 3-C) the “MIC S. aureus 133” value [1, 5] was <0.063 µg/mL, the “MIC S. pneumoniae G9a” value ([2]; BHI broth with 10% bovine serum, 10^6 microbes per ml, 37° C., 18-24 hours, 10% CO2, trishydrochloride) was <0.063 µg/mL and the “MIC E. faecalis ICB 27159” value (E. faecalis ICB 27159; [5]) was 1 µg/mL.
